Tests used:
[1] = test system: spontaneous hypertension rat (SHR); experiment: BP of the spontaneous hypertension rat; format: in vivo; conditions: 2 × 10-2 g/kg PO
Kunming mice = experiment: mouse's spontaneous activity; format: in vivo; conditions: 5 × 10-2 g/kg PO
Excerpt: Kunming mice weighing 18-22 g were chosen and divided into groups at random. Each group was made up of 10 mice.

rabbit platelet = rabbit platelet aggregation induced by ADP (Born's method); format: cell-based; conditions: rabbit platelet-rich plasma, ADP 12 μM, 5th minute, 0.27 mg/ml
Description: 1.1 The influence on the rabbit platelet's aggregative character: Rabbit platelet plasma was prepared according to the Csalay's method. Lucid rabbit's blood was collected by carotid arterial cannula, then the blood was mingled with 3.8% sodium citrate in proportion of 9:1 to anticoagulate. The mixture was centrifuged on the speed of 1000 rpm for 5 minutes then at the speed of 3000 rpm for 10 minutes. The blood plasma was separated into the platelet-rich plasma and the platelet-absent plasma. When conducting the measurement, the platelet aggregation percent was regulated to 50-60%. The platelet aggregation experiment was performed according to the Born's method by the PPP autobalance platelet-aggregation-machine (type SPA-3), keeping the concentrate of ADP(the aggregation inducer) at 12 μM, then collecting the data and comparing the aggregation percents between the treatment group and the control group at the 5th minute.

rat platelet = rat platelet aggregation after gastric administration; format: in vivo; conditions: 2.7 × 10-2 g/kg PO, ADP 2.8 μM
Description: 1.1 The influence on the rabbit platelet's aggregative character: Rabbit platelet plasma was prepared according to the […] method. […] The mixture was centrifuged on the speed of 1000 rpm for 5 minutes then at the speed of 3000 rpm for 10 minutes. The blood plasma was separated into the platelet-rich plasma and the platelet-absent plasma. […] 1.5 hour after the administration, the blood from the abdominal aorta was collected on the condition of anesthesia by ether. The platelet plasma was prepared by the same method mentioned above, and the PLT aggregation experiment performed by the same machine with a different ADP concentrate of 2.8 μM.

male Wistar rats = experiment: rat's experimental thrombosis (extracorporeal circulation); format: in vivo; conditions: 0.05 g/kg iv
Description: 1.3 The influence on the rat's experimental thrombosis: Male Wistar rats weighing 270-370 g were chosen to be anaesthetized by belly injection of sodium pentobarbital on the dosage of 50 mg/kg, then the rats were fixed at the supine position and the right common carotid artery and the left external jugular vein were detached. A polyvinyl pipe of 19.5 cm long with the inside diameter of 1.5 mm embedded in a 5.0 cm-long type 4 suture and filled with the solution of heparin and normal saline (25 μ/kg) was inserted into the right common carotid artery one end and the left external jugular vein the other end. […] 15 minutes later, the pipe was closed, the suture taken out and the greenweight measured.

female NIH mice [2] = experiment: mouse hot-plate method pain threshold; format: in vivo; conditions: 1.5 × 10-2 g/kg ip
Description: 2.1 The influence on the mouse's reaction to the heat: The experiment referred to the mouse hot-plate method: female NIH mice weighing 18-22 g were put on the type CS501 ultra thermostat's metallic plate, on which the temperature was 55.0±0.5° C. The action of sucking the postpedes and jumping were concerned as the indexes to the pain caused by the heat and the shortest time when the mouse shown the indexes was defined as the pain threshold. The sensitive mice whose pain threshold were shorter than 30 s were chosen and divided into 4 groups according to their pain threshold, each group including 10 mice. […] If the threshold was beyond 60 s, it would be recorded as 60 s. […] The group on the dosage of 5.0 g/kg improved the pain threshold by 148.74% (p<0.001), and the effect lasted 5 hours.

SD white rats = experiment: rat's tail-whipping method pain threshold; format: in vivo; conditions: 1.5 × 10-2 g/kg PO
Description: 2.2 The influence on the rat's reaction to the heat. The experiment referred to the rat's tail-whipping method: SD white rats weighing 180-220 g were chosen and the distal ⅓ of their tails were dipped into hot water in which the temperature was regulated to 55.0±0.5° C. by the CS501 ultra thermostat. The tail's whipping out of the water was defined to be the index of pain. The rats were divided equably into 5 groups according to the pain threshold and each group had 9 rats. […] (p<0.05), 64.52% (P<0.05), the duration of effect was 1 h, 4 h.

female NIH mice [3] = experiment: mouse electrostimulation pain threshold; format: in vivo; conditions: 0.05 g/kg ip
Excerpt: 2.3 The influence on the electrostimulation of mouse: The experiment method adopted was to simulate the mouse's vola with the electricity. Female NIH mice weighing 18-22 g were chosen and put on the conductive copper-wire plate of the YSD-4 multipurpose apparatus's zoopery box. The electricity was switched on and the time when the mouse […] chosen as the index of pain threshold. The sensitive mice whose pain thresholds were shorter than 15 s were chosen to do the experiment.

female NIH mice [4] = experiment: mouse's body-twisting method (ethanoic acid); format: in vivo; conditions: 0.10 g/kg ip, 0.8% ethanoic acid, 20 minutes
Description: The experiment method was the mouse's body-twisting method. Female NIH mice weighing 18-22 g were divided into groups at random and each group had 10 mice. […] The number of the mice's body twisting in the following 20 minutes were recorded as the index.

C[C@H](CS)C(=O)N1CCC[C@H]1C(=O)O [Captopril]
blood pressure ([1]; 1/2 week): 113.5 ± 3.9 | blood pressure ([1]; 1 week): 138.2 ± 3.6 | blood pressure ([1]; 2 week): 142.3 ± 1.8 | blood pressure ([1]; 3 week): 140.0 ± 2.0 | blood pressure ([1]; before administration): 170.5 ± 2.9

COc1cc2c(cc1OC)[C@@H]1Cc3ccc(OC)c(OC)c3CN1CC2 [tetrahydropalmatine]
Amount of spontaneous activity (Kunming mice): 24.3 ± 4.3

CC(=O)Oc1ccccc1C(=O)O [Aspirin]
aggregation percent (rabbit platelet): 39.94 ± 2.05 % | platelet aggregation percent (max) (rat platelet): 31.06 ± 3.80 % | greenweight of thrombus (male Wistar rats): 18.28 ± 1.28 mg

CN1CC[C@]23c4c5ccc(O)c4O[C@H]2[C@@H](O)C=C[C@H]3[C@H]1C5.Cl [Morphine hydrochloride]
pain threshold (hot-plate method) (female NIH mice [2]; 1/2 h after administration, cut-off 60 s): >60 s | pain threshold (hot-plate method) (female NIH mice [2]; 1 h after administration, cut-off 60 s): >60 s | pain threshold (hot-plate method) (female NIH mice [2]; 3 h after administration, cut-off 60 s): >60 s | pain threshold (hot-plate method) (female NIH mice [2]; 5 h after administration, cut-off 60 s): >60 s | pain threshold (hot-plate method) (female NIH mice [2]; before administration): 22.5 ± 2.4 s | pain threshold (tail-whipping method) (SD white rats; 1/2 h after administration): 9.2 ± 0.8 | pain threshold (tail-whipping method) (SD white rats; 1 h after administration): 5.7 ± 0.4 | pain threshold (tail-whipping method) (SD white rats; 2 h after administration): 4.5 ± 0.4 | pain threshold (tail-whipping method) (SD white rats; 4 h after administration): 3.3 ± 0.4 | pain threshold (tail-whipping method) (SD white rats; before administration): 3.2 ± 0.3

Cc1c(N(C)C)c(=O)n(-c2ccccc2)n1C [aminopyrine]
pain threshold in the electrostimulation experiment (female NIH mice [3]; after administration): 21.3 ± 5.5 s | pain threshold in the electrostimulation experiment (female NIH mice [3]; before administration): 4.8 ± 1.0 s | twist times (female NIH mice [4]): 2.8 ± 1.3
